Our source for the IC50 values is US10717734B2, “Indole and azaindole haloallylamine derivative inhibitors of lysyl oxidases and uses thereof” (PHARMAXIS LTD., priority 2016, dated 2020).

Assay type in all cases: biochemical
One experiment concerns the target Bovine LOX (Bos taurus (Bovine), UniProt P33072). The experiment in a line: LOX inhibition, peroxidase-coupled Amplex Red amine oxidase assay. The settings on record: 30 min preincubation at 37° C., putrescine substrate. The source says: (§1) Method to Determine the Ability of Compounds of the Invention to Inhibit LOX and LOXL1-4 from Different Sources
Lysyl oxidase (LOX) is an extracellular copper dependent enzyme which oxidizes peptidyl lysine and hydroxylysine residues in collagen and lysine residues in elastin to produce peptidyl alpha-aminoadipic-delta-semialdehydes. […] There are five LOX family members; these are LOX, LOXL1, LOXL2, LOXL3 and LOXL4. LOX and LOXL family members can be acquired as recombinant active proteins from commercial sources, or extracted from animal tissues like bovine aorta, tendons, pig skin; or prepared from cell cultures. The inhibitory effects of the compounds of the present invention were tested against the given LOX-LOXL preparation using a high-throughput coupled colorimetric method (Holt A. and Palcic M., A peroxidase-coupled continuous absorbance plate-reader assay for flavin monoamine oxidases, copper-containing amine oxidases and related enzymes. Nat. Protoc. 2006; 1: 2498-2505). The assay was developed using either 384 or 96 well format. Briefly, in a standard 384 well plate assay 25 μL of a dilution of any of the isoenzymes and orthologues in 1.2 M urea, 50 mM sodium borate buffer (pH 8.2) were added into each well in the presence of 1 μM mofegiline and 0.5 mM pargyline (to inhibit SSAO and MAO-B and MAO-A, respectively). […] Twenty five μL of a reaction mixture containing twice the KM concentration of putrescine (Sigma Aldrich, e.g. 20 mM for LOX, or 10 mM for LOXL2 and LOXL3), 120 μM Amplex Red (Sigma Aldrich) and 1.5 U/mL horseradish peroxidase (Sigma Aldrich) prepared in 1.2 M urea, 50 mM sodium borate buffer (pH 8.2) were then added to the corresponding wells. The above volumes were doubled in the case of 96 wells plate. The fluorescence (RFU) was read every 2.5 min for 30 min at a range of temperatures from 37° to 45° C., excitation 565 nm and emission 590 (Optima; BMG labtech). The slope of the kinetics for each well was calculated using MARS data analysis software (BMG labtech) and this value was used to deduce the IC50 value (Dotmatics).

The next experiment concerns the target Human LOXL2 (Homo sapiens (Human), UniProt Q9Y4K0). Put plainly: LOXL2 inhibition, peroxidase-coupled Amplex Red amine oxidase assay. The settings on record: 30 min preincubation at 37° C., putrescine substrate.
Text: as §1
Lysyl oxidase (LOX) is an extracellular copper dependent enzyme which oxidizes peptidyl lysine and hydroxylysine residues in collagen and lysine residues in elastin to produce peptidyl alpha-aminoadipic-delta-semialdehydes. […] There are five LOX family members; these are LOX, LOXL1, LOXL2, LOXL3 and LOXL4. LOX and LOXL family members can be acquired as recombinant active proteins from commercial sources, or extracted from animal tissues like bovine aorta, tendons, pig skin; or prepared from cell cultures. The inhibitory effects of the compounds of the present invention were tested against the given LOX-LOXL preparation using a high-throughput coupled colorimetric method (Holt A. and Palcic M., A peroxidase-coupled continuous absorbance plate-reader assay for flavin monoamine oxidases, copper-containing amine oxidases and related enzymes. Nat. Protoc. 2006; 1: 2498-2505). The assay was developed using either 384 or 96 well format. Briefly, in a standard 384 well plate assay 25 μL of a dilution of any of the isoenzymes and orthologues in 1.2 M urea, 50 mM sodium borate buffer (pH 8.2) were added into each well in the presence of 1 μM mofegiline and 0.5 mM pargyline (to inhibit SSAO and MAO-B and MAO-A, respectively). Test compounds were dissolved in DMSO and tested in a Concentration Response Curve (CRC) with 11 data points, typically in the micromolar or nanomolar range after incubation with the enzyme for 30 min at 37° C. Twenty five μL of a reaction mixture containing twice the KM concentration of putrescine (Sigma Aldrich, e.g. 20 mM for LOX, or 10 mM for LOXL2 and LOXL3), 120 μM Amplex Red (Sigma Aldrich) and 1.5 U/mL horseradish peroxidase (Sigma Aldrich) prepared in 1.2 M urea, 50 mM sodium borate buffer (pH 8.2) were then added to the corresponding wells. The above volumes were doubled in the case of 96 wells plate. The fluorescence (RFU) was read every 2.5 min for 30 min at a range of temperatures from 37° to 45° C., excitation 565 nm and emission 590 (Optima; BMG labtech). The slope of the kinetics for each well was calculated using MARS data analysis software (BMG labtech) and this value was used to deduce the IC50 value (Dotmatics).

Experiment [1] deals with Human recombinant SSAO/VAP-1 (Homo sapiens (Human), UniProt Q16853). Put plainly: Human recombinant SSAO/VAP-1 amine oxidase inhibition. Particulars: 30 min preincubation at 37° C., 600 μM benzylamine. As to the method:
Method to Determine the Ability of Compounds of Formula I to Inhibit Human Recombinant SSAO/VAP-1
Human recombinant SSAO/VAP-1 amine oxidase activity was determined using the coupled colorimetric method as described for monoamine oxidase, copper-containing amine oxidases and related enzymes (Holt A. and Palcic M., A peroxidase-coupled continuous absorbance plate-reader assay for flavin monoamine oxidases, copper-containing amine oxidases and related enzymes. Nat Protoc 2006; 1: 2498-2505). Briefly, a cloned cDNA template corresponding to residues 34-763 of human SSAO/VAP-1, and incorporating a mouse Ig kappa (κ) signal sequence, N-terminal flag epitope tag and tobacco etch virus (TEV) cleavage site, was assembled in a mammalian expression vector (pLO-CMV) by Geneart AG. This vector containing human SSAO/VAP-1 residues was transfected into CHO-K1 glycosylation mutant cell line, Lec 8. A clone stably expressing human SSAO/VAP-1 was isolated and cultured in large scale. Active human SSAO/VAP-1 was purified and recovered using immunoaffinity chromatography. This was used as the source for SSAO/VAP-1 activity. A high-throughput colorimetric assay was developed using either 96 or 384 well format. Briefly, in a standard 96 well plate assay 50 μL of purified human SSAO/VAP-1 (0.25 μg/mL) in 0.1 M sodium phosphate buffer (pH 7.4) was added into each well. Test compounds were dissolved in DMSO and tested in a Concentration Response Curve (CRC) with 4-11 data points, typically in the micromolar or nanomolar range after incubation with human SSAO/VAP-1 for 30 min at 37° C. After 30 min incubation, 50 μL of the reaction mixture containing 600 μM benzylamine (Sigma Aldrich), 120 μM Amplex Red (Sigma Aldrich) and 1.5 U/mL horseradish peroxidase (Sigma Aldrich) prepared in 0.1 M sodium phosphate buffer (pH 7.4) were added to the corresponding well. The fluorescence unit (RFU) was read every 2.5 min for 30 min at 37° C. excitation 565 nm and emission 590 (Optima; BMG labtech). The slope of the kinetics for each well was calculated using MARS data analysis software (BMG labtech) and this value was used to deduce the IC50 value (Dotmatics).

For the next experiment, the target named is Recombinant human MAO-B (Homo sapiens (Human), UniProt P27338). Put plainly: Human recombinant MAO-B inhibition. Particulars: benzylamine 100 μM. The method, then: Method to Determine the Ability of Compounds of Formula I to Inhibit Human Recombinant MAO-B
The specificity of the compounds of this invention was tested by determining their ability to inhibit MAO-B activities in vitro. Recombinant human MAO-B (0.06 mg/mL; Sigma Aldrich) was used as source of MAO-B enzyme activities. The assay was performed in a similar way as for human SSAO/VAP-1 (Example 36) except, the substrate benzylamine was used at 100 μM.

Structures can show the parent of a compound that is named as a salt.

Chain of Human LOXL2 (Q9Y4K0 26-774): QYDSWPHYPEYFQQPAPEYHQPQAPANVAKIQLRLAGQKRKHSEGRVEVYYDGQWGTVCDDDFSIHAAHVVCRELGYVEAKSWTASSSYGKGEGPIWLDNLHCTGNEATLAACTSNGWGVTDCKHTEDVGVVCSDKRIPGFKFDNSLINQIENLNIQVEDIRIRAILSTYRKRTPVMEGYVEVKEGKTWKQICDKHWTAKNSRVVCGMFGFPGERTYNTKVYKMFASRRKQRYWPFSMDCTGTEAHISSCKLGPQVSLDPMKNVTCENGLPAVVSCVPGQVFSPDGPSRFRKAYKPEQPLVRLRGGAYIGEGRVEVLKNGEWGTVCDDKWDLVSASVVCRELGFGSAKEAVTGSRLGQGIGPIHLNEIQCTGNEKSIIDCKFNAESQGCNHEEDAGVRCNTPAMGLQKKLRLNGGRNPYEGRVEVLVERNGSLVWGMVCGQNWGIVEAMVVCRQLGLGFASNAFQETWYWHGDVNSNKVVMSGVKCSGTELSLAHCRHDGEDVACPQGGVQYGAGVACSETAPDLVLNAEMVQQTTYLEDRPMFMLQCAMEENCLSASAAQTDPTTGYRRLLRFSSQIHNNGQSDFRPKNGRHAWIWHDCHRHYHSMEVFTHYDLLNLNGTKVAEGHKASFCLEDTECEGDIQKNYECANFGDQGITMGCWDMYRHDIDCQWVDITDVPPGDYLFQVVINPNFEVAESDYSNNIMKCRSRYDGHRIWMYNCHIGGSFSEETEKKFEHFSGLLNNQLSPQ
Chain of Recombinant human MAO-B (P27338 whole entry): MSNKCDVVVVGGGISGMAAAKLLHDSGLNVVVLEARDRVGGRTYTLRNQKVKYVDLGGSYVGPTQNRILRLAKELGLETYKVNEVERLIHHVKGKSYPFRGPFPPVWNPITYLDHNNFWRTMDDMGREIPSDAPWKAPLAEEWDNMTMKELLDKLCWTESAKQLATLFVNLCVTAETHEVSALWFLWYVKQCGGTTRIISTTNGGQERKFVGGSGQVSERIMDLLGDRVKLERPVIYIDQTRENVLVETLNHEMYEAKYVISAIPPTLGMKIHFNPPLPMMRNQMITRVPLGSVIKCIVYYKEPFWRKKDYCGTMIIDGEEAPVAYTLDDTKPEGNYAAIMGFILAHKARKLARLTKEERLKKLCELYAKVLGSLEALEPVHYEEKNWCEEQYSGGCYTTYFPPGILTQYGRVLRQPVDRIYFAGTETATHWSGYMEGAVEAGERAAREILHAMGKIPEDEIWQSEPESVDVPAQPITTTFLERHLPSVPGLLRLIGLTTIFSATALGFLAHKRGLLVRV
Chain of Bovine LOX (P33072 170-418): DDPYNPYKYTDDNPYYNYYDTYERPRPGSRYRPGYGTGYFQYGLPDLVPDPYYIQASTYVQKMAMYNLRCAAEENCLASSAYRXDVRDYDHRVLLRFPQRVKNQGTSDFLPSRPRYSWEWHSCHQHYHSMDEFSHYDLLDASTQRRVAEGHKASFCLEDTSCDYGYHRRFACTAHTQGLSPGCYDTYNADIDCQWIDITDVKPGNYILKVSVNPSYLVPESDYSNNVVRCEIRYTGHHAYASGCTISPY
Chain of Human recombinant SSAO/VAP-1 (Q16853 34-763): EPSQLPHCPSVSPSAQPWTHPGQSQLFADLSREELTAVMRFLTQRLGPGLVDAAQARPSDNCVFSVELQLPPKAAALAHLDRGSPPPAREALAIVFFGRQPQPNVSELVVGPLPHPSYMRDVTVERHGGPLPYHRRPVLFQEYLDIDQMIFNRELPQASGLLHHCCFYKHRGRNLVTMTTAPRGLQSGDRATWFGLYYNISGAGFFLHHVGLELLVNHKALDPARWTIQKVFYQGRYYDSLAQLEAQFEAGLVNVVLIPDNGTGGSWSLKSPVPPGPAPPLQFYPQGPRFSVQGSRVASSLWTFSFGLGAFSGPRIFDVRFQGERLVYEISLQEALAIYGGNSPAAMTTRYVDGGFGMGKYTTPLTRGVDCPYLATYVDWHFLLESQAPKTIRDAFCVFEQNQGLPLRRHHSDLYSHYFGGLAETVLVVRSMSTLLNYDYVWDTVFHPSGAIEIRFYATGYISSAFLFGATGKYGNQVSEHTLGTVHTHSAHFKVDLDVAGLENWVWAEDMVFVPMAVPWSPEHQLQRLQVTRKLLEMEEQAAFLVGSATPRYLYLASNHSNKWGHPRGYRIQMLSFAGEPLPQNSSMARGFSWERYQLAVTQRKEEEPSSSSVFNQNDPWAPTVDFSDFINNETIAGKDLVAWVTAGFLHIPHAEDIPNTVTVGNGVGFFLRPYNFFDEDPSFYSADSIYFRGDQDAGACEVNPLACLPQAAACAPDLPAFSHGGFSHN

`Cc1cnc2c(Cc3ccc(S(=O)(=O)N(C)C)cc3)c(C)n(C/C(F)=C/CN)c2c1` [Compound 11, (Z)-4-((1-(4-amino-2-fluorobut-2-en-1-yl)-2,6-dimethyl-1H-pyrrolo[3,2-b]pyridin-3-yl)methyl)-N,N-dimethylbenzenesulfonamide dihydrochloride]: the IC50 (in general, the midpoint of a concentration-inhibition curve) against Bovine LOX is more than 300 nM; against Human LOXL2 it was less than 300 nM; in experiment [1] it was more than 3000 nM; on Recombinant human MAO-B, more than 3000 nM.

As to `Cc1ccc2c(n1)c(Cc1ccc(S(C)(=O)=O)cc1)c(C)n2C/C(F)=C/CN` [Compound 12, (Z)-4-(2,5-dimethyl-3-(4-(methylsulfonyl)benzyl)-1H-pyrrolo[3,2-b]pyridin-1-yl)-3-fluorobut-2-en-1-amine dihydrochloride], the IC50 against Bovine LOX was more than 300 nM; against Human LOXL2, less than 300 nM; in experiment [1], more than 3000 nM; at Recombinant human MAO-B, more than 3000 nM.

Take `Cc1ccc2c(n1)c(Cc1ccc(S(C)(=O)=O)nc1)c(C)n2C/C(F)=C/CN` [Compound 13, (Z)-4-(2,5-dimethyl-3-((6-(methylsulfonyl)pyridin-3-yl)methyl)-1H-pyrrolo[3,2-b]pyridin-1-yl)-3-fluorobut-2-en-1-amine trihydrochloride]: the IC50 is more than 300 nM on Bovine LOX, less than 300 nM at Human LOXL2, more than 3000 nM in experiment [1] and more than 3000 nM at Recombinant human MAO-B.

Turning to `Cc1ccc2c(n1)c(Cc1ccc(S(C)(=O)=O)cn1)c(C)n2C/C(F)=C/CN` [Compound 14, (Z)-4-(2,5-dimethyl-3-((5-(methylsulfonyl)pyridin-2-yl)methyl)-1H-pyrrolo[3,2-b]pyridin-1-yl)-3-fluorobut-2-en-1-amine trihydrochloride], the IC50 was more than 300 nM on Bovine LOX, less than 300 nM against Human LOXL2, more than 3000 nM in experiment [1] and more than 3000 nM on Recombinant human MAO-B.

With `Cc1ccc2c(n1)c(Cc1ccc(S(=O)(=O)N(C)C)cn1)c(C)n2C/C(F)=C/CN` [Compound 15, (Z)-6-((1-(4-amino-2-fluorobut-2-en-1-yl)-2,5-dimethyl-1H-pyrrolo[3,2-b]pyridin-3-yl)methyl)-N,N-dimethylpyridine-3-sulfonamide trihydrochloride], the IC50 is more than 300 nM against Bovine LOX, less than 300 nM against Human LOXL2, more than 3000 nM in experiment [1] and more than 3000 nM on Recombinant human MAO-B.

`Cc1ccc2c(n1)c(Cc1ccc(S(=O)(=O)N(C)C)nc1)c(C)n2C/C(F)=C/CN` [Compound 16, (Z)-5-((1-(4-amino-2-fluorobut-2-en-1-yl)-2,5-dimethyl-1H-pyrrolo[3,2-b]pyridin-3-yl)methyl)-N,N-dimethylpyridine-2-sulfonamide trihydrochloride]: the IC50 against Bovine LOX was more than 300 nM; against Human LOXL2, less than 300 nM; in experiment [1] it was more than 3000 nM; at Recombinant human MAO-B it was more than 3000 nM.

Turning to `Cc1ccc2c(n1)c(Cc1cccc(S(C)(=O)=O)c1)c(C)n2C/C(F)=C/CN` [Compound 17, (Z)-4-(2,5-dimethyl-3-(3-(methylsulfonyl)benzyl)-1H-pyrrolo[3,2-b]pyridin-1-yl)-3-fluorobut-2-en-1-amine dihydrochloride], the IC50 against Bovine LOX is more than 300 nM; against Human LOXL2 it was less than 300 nM; in experiment [1], more than 3000 nM; at Recombinant human MAO-B it was more than 3000 nM.

For the molecule `Cc1c(Cc2cccc(S(=O)(=O)N(C)C)c2)c2ncccc2n1C/C(F)=C/CN` [Compound 18, dihydrochloride], the IC50 is more than 300 nM at Bovine LOX, less than 300 nM on Human LOXL2, more than 3000 nM in experiment [1] and more than 3000 nM on Recombinant human MAO-B.

For the molecule `Cc1cc2c(nc1O)c(Cc1ccc(S(=O)(=O)N(C)C)cc1)c(C)n2C/C(F)=C/CN` [Compound 19, (Z)-4-((1-(4-amino-2-fluorobut-2-en-1-yl)-5-hydroxy-2,6-dimethyl-1H-pyrrolo[3,2-b]pyridin-3-yl)methyl)-N,N-dimethylbenzenesulfonamide dihydrochloride], the IC50 was more than 300 nM on Bovine LOX, less than 300 nM against Human LOXL2, more than 3000 nM in experiment [1] and more than 3000 nM on Recombinant human MAO-B.

Turning to `Cc1c(Cc2ccc(S(C)(=O)=O)cc2Cl)c2ncccc2n1C/C(F)=C/CN` [Compound 20, (Z)-4-(3-(2-chloro-4-(methylsulfonyl)benzyl)-2-methyl-1H-pyrrolo[3,2-b]pyridin-1-yl)-3-fluorobut-2-en-1-amine dihydrochloride], the IC50 on Bovine LOX is more than 300 nM; on Human LOXL2, less than 300 nM; in experiment [1], more than 3000 nM; at Recombinant human MAO-B, more than 3000 nM.

As for `Cc1c(Oc2ccc(S(=O)(=O)N(C)C)cc2)c2ccccc2n1C/C(F)=C/CN` [Compound 21, (Z)-4-((1-(4-amino-2-fluorobut-2-en-1-yl)-2-methyl-1H-indol-3-yl)oxy)-N,N-dimethylbenzene-sulfonamide hydrochloride], the IC50 was more than 300 nM against Bovine LOX, less than 300 nM against Human LOXL2, more than 3000 nM in experiment [1] and more than 3000 nM at Recombinant human MAO-B.

For `Cc1c(Cc2ccc(S(=O)(=O)N(C)C)cc2)c2nc(F)ccc2n1C/C(F)=C/CN` [Compound 23, (Z)-4-((1-(4-amino-2-fluorobut-2-en-1-yl)-5-fluoro-2-methyl-1H-pyrrolo[3,2-b]pyridin-3-yl)methyl)-N,N-dimethylbenzenesulfonamide dihydrochloride], the IC50 at Bovine LOX is more than 300 nM; at Human LOXL2, less than 300 nM; in experiment [1], more than 3000 nM; on Recombinant human MAO-B, more than 3000 nM.
